Data taken from the SangsterLogP compilation.

SMILES | logP
COC(=O)c1cc2ccccc2s1 | 3.21
COC(=O)c1cc2ccc([N+](=O)[O-])cc2s1 | 3.06
COc1ccc(OC)c2sc(CO)cc12 | 2.11
CN(C)N=Cc1cc2cc(Cl)ccc2s1 | 4.18
COc1ccc(OC)c2sc(C=O)cc12 | 2.75
COC(=O)c1sc2c(OC)ccc(OC)c2c1N | 2.97
OCc1cc2ccccc2s1 | 2.08
COC(=O)c1cc2cc(Cl)ccc2s1 | 3.81

Continued, values first:

logP | SMILES
2.71 | OCc1cc2cc(Cl)ccc2s1
4.54 | CN(C)N=Cc1sc2ccc(Cl)cc2c1Br
2.94 | O=Cc1cc2cc(Cl)ccc2s1
3.6 | OCc1sc2ccc(Cl)cc2c1Br
3.89 | O=Cc1sc2ccc(Cl)cc2c1Br
